Measurements published in ChEMBL document CHEMBL4145553, “Design, synthesis, and biological evaluation of novel amide and hydrazide based thioether analogs targeting Histone deacteylase (HDAC) enzymes” (Eur J Med Chem, 2018).
Activity calls are given as the source filed them. The calls are words filed in the database; no cut-off is given here.

What was measured:
SK-MEL-5 = assay: Growth inhibition of human SK-MEL-5 cells assessed as cell growth at 10^-4 M incubated for 48 hrs by sulforhodamine B assay relative to control; type: functional; conditions: SK-MEL-5, 48 h, read-out: Activity
NCI-H522 [1] = assay: Growth inhibition of human NCI-H522 cells assessed as cell growth at 10^-6 M incubated for 48 hrs by sulforhodamine B assay relative to control; type: functional; conditions: NCI-H522, 48 h, read-out: Activity
SF-295 = assay: Growth inhibition of human SF295 cells incubated for 48 hrs by sulforhodamine B assay; type: functional; conditions: SF-295, 48 h
NCI-H23 = assay: Growth inhibition of human NCI-H23 cells assessed as cell growth at 10^-4 M incubated for 48 hrs by sulforhodamine B assay relative to control; type: functional; conditions: NCI-H23, 48 h, read-out: Activity
SK-OV-3 = assay: Growth inhibition of human SKOV3 cells assessed as cell growth at 10^-5 M incubated for 48 hrs by sulforhodamine B assay relative to control; type: functional; conditions: SK-OV-3, 48 h, read-out: Activity
HT-29 [2] = assay: Growth inhibition of human HT-29 cells assessed as cell growth at 10^-7 M incubated for 48 hrs by sulforhodamine B assay relative to control; type: functional; conditions: HT-29, 48 h, read-out: Activity
HOP-62 = assay: Growth inhibition of human HOP62 cells assessed as cell growth at 10^-5 M incubated for 48 hrs by sulforhodamine B assay relative to control; type: functional; conditions: HOP-62, 48 h, read-out: Activity
RPMI-8226 = assay: Growth inhibition of human RPMI8226 cells assessed as cell growth at 10^-7 M incubated for 48 hrs by sulforhodamine B assay relative to control; type: functional; conditions: RPMI-8226, 48 h, read-out: Activity
HL-60 [3] = assay: Cell cycle arrest in human HL60 cells assessed as accumulation at G1-phase by propidium iodide staining based flow cytometry (reference value: 67.27%); type: functional
HL-60 [4] = assay: Downregulation of HDAC1 mRNA expression in human HL60 cells by qRT-PCR method; type: functional, cell-based
Hs-578T = assay: Growth inhibition of human Hs 578T cells assessed as cell growth at 10^-8 M incubated for 48 hrs by sulforhodamine B assay relative to control; type: functional; conditions: read-out: Activity
MDA-MB-435 [5] = assay: Induction of apoptosis in human MDA-MB-435 cells assessed as necrotic cells by propidium iodide/Annexin V staining based flow cytometry (reference value: 0.24%); type: functional
SNB-19 = assay: Growth inhibition of human SNB19 cells assessed as cell growth at 10^-7 M incubated for 48 hrs by sulforhodamine B assay relative to control; type: functional; conditions: SNB-19, 48 h, read-out: Activity
NCI-H522 [6] = assay: Growth inhibition of human NCI-H522 cells assessed as cell growth at 10^-7 M incubated for 48 hrs by sulforhodamine B assay relative to control; type: functional; conditions: NCI-H522, 48 h, read-out: Activity
MDA-MB-435 [7] = assay: Downregulation of HDAC2 mRNA expression in human MDA-MB-435 cells by qRT-PCR method relative to control; type: functional
HT-29 [8] = assay: Growth inhibition of human HT-29 cells incubated for 48 hrs by sulforhodamine B assay; type: functional; conditions: HT-29, 48 h
KM12 = assay: Growth inhibition of human KM12 cells assessed as cell growth at 10^-5 M incubated for 48 hrs by sulforhodamine B assay relative to control; type: functional; conditions: KM12, 48 h, read-out: Activity
K562 = assay: Growth inhibition of human K562 cells assessed as cell growth at 10^-6 M incubated for 48 hrs by sulforhodamine B assay relative to control; type: functional; conditions: K562, 48 h, read-out: Activity
HL-60 [9] = assay: Antiproliferative activity against human HL60 cells after 24 hrs by MTT assay; type: functional; conditions: for GI50: Homo sapiens, HL-60, 24 h
NCI-H226 = assay: Growth inhibition of human NCI-H226 cells assessed as cell growth at 10^-8 M incubated for 48 hrs by sulforhodamine B assay relative to control; type: functional; conditions: NCI-H226, 48 h, read-out: Activity
OVCAR-3 = assay: Growth inhibition of human OVCAR3 cells assessed as cell growth at 10^-8 M incubated for 48 hrs by sulforhodamine B assay relative to control; type: functional; conditions: OVCAR-3, 48 h, read-out: Activity
SR = assay: Growth inhibition of human SR cells incubated for 48 hrs by sulforhodamine B assay; type: functional
UACC-62 = assay: Growth inhibition of human UACC62 cells assessed as cell growth at 10^-7 M incubated for 48 hrs by sulforhodamine B assay relative to control; type: functional; conditions: UACC-62, 48 h, read-out: Activity
BT-549 [10] = assay: Growth inhibition of human BT549 cells assessed as cell growth at 10^-5 M incubated for 48 hrs by sulforhodamine B assay relative to control; type: functional; conditions: BT-549, 48 h, read-out: Activity
EKVX = assay: Growth inhibition of human EKVX cells assessed as cell growth at 10^-7 M incubated for 48 hrs by sulforhodamine B assay relative to control; type: functional; conditions: read-out: Activity
TK-10 = assay: Growth inhibition of human TK10 cells assessed as cell growth at 10^-7 M incubated for 48 hrs by sulforhodamine B assay relative to control; type: functional; conditions: TK-10, 48 h, read-out: Activity
NCI-H460 = assay: Growth inhibition of human NCI-H460 cells assessed as cell growth at 10^-5 M incubated for 48 hrs by sulforhodamine B assay relative to control; type: functional; conditions: NCI-H460, 48 h, read-out: Activity
MOLT-4 = assay: Growth inhibition of human MOLT4 cells assessed as cell growth at 10^-6 M incubated for 48 hrs by sulforhodamine B assay relative to control; type: functional; conditions: MOLT-4, 48 h, read-out: Activity
BT-549 [11] = assay: Growth inhibition of human BT549 cells assessed as cell growth at 10^-6 M incubated for 48 hrs by sulforhodamine B assay relative to control; type: functional; conditions: BT-549, 48 h, read-out: Activity
HCT-15 = assay: Growth inhibition of human HCT15 cells incubated for 48 hrs by sulforhodamine B assay; type: functional; conditions: HCT-15, 48 h
CAKI-1 = assay: Growth inhibition of human Caki1 cells assessed as cell growth at 10^-8 M incubated for 48 hrs by sulforhodamine B assay relative to control; type: functional; conditions: CAKI-1, 48 h, read-out: Activity
OVCAR-5 = assay: Growth inhibition of human OVCAR5 cells assessed as cell growth at 10^-6 M incubated for 48 hrs by sulforhodamine B assay relative to control; type: functional; conditions: OVCAR-5, 48 h, read-out: Activity
[12] = read-out: LC50 (the source's name)
[13] = read-out: pLC50 (the source's name) (converted)

CCS/C(Nc1ccccc1)=C(\C#N)C(=O)Nc1ccc(OC)cc1
growth at 100 µM (SK-MEL-5): -58%
growth at 1 µM (NCI-H522 [1]): 77%
GI50 (SF-295; read-out: GI50): 3.06 µM
CC50 (SF-295; [12]): > 100 µM
TGI (SF-295; read-out: TGI): > 100 µM
GI50 (SF-295; read-out: pGI50 (converted)): 3.09 µM
CC50 (SF-295; [13]): > 100 µM
TGI (SF-295; read-out: pTGI): > 100 µM
growth at 100 µM (NCI-H23): 21%
growth at 10 µM (SK-OV-3): 10%
growth at 0.1 µM (HT-29 [2]): 105%
growth at 10 µM (HOP-62): 41%
growth at 0.1 µM (RPMI-8226): 89%
Activity (HL-60 [3]): 54.11%
Activity (HL-60 [4]): Active
growth at 0.01 µM (Hs-578T): 97%
Activity (MDA-MB-435 [5]): 1.63%
growth at 0.1 µM (SNB-19): 95%
growth at 0.1 µM (NCI-H522 [6]): 94%
fold change (FC) (MDA-MB-435 [7]): <=10
GI50 (HT-29 [8]; read-out: GI50): 3.47 µM
CC50 (HT-29 [8]; [12]): > 100 µM
TGI (HT-29 [8]; read-out: TGI): 33.3 µM
GI50 (HT-29 [8]; read-out: pGI50 (converted)): 3.47 µM
CC50 (HT-29 [8]; [13]): > 100 µM
TGI (HT-29 [8]; read-out: pTGI (converted)): 33.1 µM
growth at 10 µM (KM12): 28%
growth at 1 µM (K562): 29%
Activity (HL-60 [9]): Dose-dependent effect
GI50 (HL-60 [9]): 2.87 µM
growth at 0.01 µM (NCI-H226): 95%
growth at 0.01 µM (OVCAR-3): 97%
GI50 (SR; read-out: GI50): 1.54 µM
CC50 (SR; [12]): > 100 µM
TGI (SR; read-out: TGI): > 100 µM
GI50 (SR; read-out: pGI50 (converted)): 1.55 µM
CC50 (SR; [13]): > 100 µM
TGI (SR; read-out: pTGI): > 100 µM
growth at 0.1 µM (UACC-62): 93%
growth at 10 µM (BT-549 [10]): 21%
growth at 0.1 µM (EKVX): 81%
growth at 0.1 µM (TK-10): 95%
growth at 10 µM (NCI-H460): 10%
growth at 1 µM (MOLT-4): 71%
growth at 1 µM (BT-549 [11]): 74%
GI50 (HCT-15; read-out: GI50): 1.19 µM
CC50 (HCT-15; [12]): > 100 µM
TGI (HCT-15; read-out: TGI): > 100 µM
GI50 (HCT-15; read-out: pGI50 (converted)): 1.2 µM
CC50 (HCT-15; [13]): > 100 µM
TGI (HCT-15; read-out: pTGI): > 100 µM
growth at 0.01 µM (CAKI-1): 90%
growth at 1 µM (OVCAR-5): 98%

CCS/C(Nc1ccccc1)=C(\C#N)C(=O)N/N=C\c1ccc(Cl)cc1Cl
growth at 100 µM (SK-MEL-5): -14%
growth at 1 µM (NCI-H522 [1]): 68%
GI50 (SF-295; read-out: GI50): 2.89 µM
CC50 (SF-295; [12]): > 100 µM
TGI (SF-295; read-out: TGI): > 100 µM
GI50 (SF-295; read-out: pGI50 (converted)): 2.88 µM
CC50 (SF-295; [13]): > 100 µM
TGI (SF-295; read-out: pTGI): > 100 µM
growth at 100 µM (NCI-H23): 36%
growth at 10 µM (SK-OV-3): 19%
growth at 0.1 µM (HT-29 [2]): 101%
growth at 10 µM (HOP-62): 29%
growth at 0.1 µM (RPMI-8226): 94%
Activity (HL-60 [3]): 46.38%
Activity (HL-60 [4]): Active
growth at 0.01 µM (Hs-578T): 96%
Activity (MDA-MB-435 [5]): 0.89%
growth at 0.1 µM (SNB-19): 94%
growth at 0.1 µM (NCI-H522 [6]): 82%
fold change (FC) (MDA-MB-435 [7]): <=10
GI50 (HT-29 [8]; read-out: GI50): 3.7 µM
CC50 (HT-29 [8]; [12]): > 100 µM
TGI (HT-29 [8]; read-out: TGI): > 100 µM
GI50 (HT-29 [8]; read-out: pGI50 (converted)): 3.72 µM
CC50 (HT-29 [8]; [13]): > 100 µM
TGI (HT-29 [8]; read-out: pTGI (converted)): > 100 µM
growth at 10 µM (KM12): 24%
growth at 1 µM (K562): 47%
Activity (HL-60 [9]): Dose-dependent effect
GI50 (HL-60 [9]): 3.2 µM
growth at 0.01 µM (NCI-H226): 90%
growth at 0.01 µM (OVCAR-3): 102%
GI50 (SR; read-out: GI50): 3.45 µM
CC50 (SR; [12]): > 100 µM
TGI (SR; read-out: TGI): > 100 µM
GI50 (SR; read-out: pGI50 (converted)): 3.47 µM
CC50 (SR; [13]): > 100 µM
TGI (SR; read-out: pTGI): > 100 µM
growth at 0.1 µM (UACC-62): 91%
growth at 10 µM (BT-549 [10]): 18%
growth at 0.1 µM (EKVX): 88%
growth at 0.1 µM (TK-10): 91%
growth at 10 µM (NCI-H460): 9%
growth at 1 µM (MOLT-4): 84%
growth at 1 µM (BT-549 [11]): 76%
GI50 (HCT-15; read-out: GI50): 2.9 µM
CC50 (HCT-15; [12]): > 100 µM
TGI (HCT-15; read-out: TGI): > 100 µM
GI50 (HCT-15; read-out: pGI50 (converted)): 2.88 µM
CC50 (HCT-15; [13]): > 100 µM
TGI (HCT-15; read-out: pTGI): > 100 µM
growth at 0.01 µM (CAKI-1): 94%
growth at 1 µM (OVCAR-5): 101%
